Test results reported in patent US10364222B2, “Cyclic amine derivative and medical use thereof” (Toray Industries, Inc., priority 2016, dated 2019).

How the values were obtained:
[1] = target: T1, ligand-binding domain of RORγ (RORγ-LBD) (Homo sapiens, UniProt P51449); assay: Inhibitory effect on RORγ-coactivator binding (LanthaScreen TR-FRET RORγ Coactivator Assay); conditions: at 33 μmol/L of the test compound; read-out: RORγ-coactivator binding inhibition rate (%)
T1 construct: purchased Invitrogen
T1 sequence (P51449 269-508 limits assumed): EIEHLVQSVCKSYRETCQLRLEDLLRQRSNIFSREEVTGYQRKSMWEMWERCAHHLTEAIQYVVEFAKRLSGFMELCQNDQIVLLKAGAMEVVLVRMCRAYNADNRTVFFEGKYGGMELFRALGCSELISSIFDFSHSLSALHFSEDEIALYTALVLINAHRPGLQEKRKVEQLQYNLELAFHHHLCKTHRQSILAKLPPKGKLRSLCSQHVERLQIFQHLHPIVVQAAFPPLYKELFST
Procedure, shortened: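 TR-FRET: 4 nmol/L GST-RORγ-LBD with compound (1% DMSO) in Coregulator Buffer D plus 5 mmol/L DTT, then 150 nmol/L fluorescein-TRAP220/DRIP-2 and 32 nmol/L Tb-anti-GST antibody; 16–24 hours at room temperature. 520/495 nm ratio (320 nm excitation), background-corrected against control, gives % inhibition of coactivator binding.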

[2] = test system: IL-17 production in mouse splenocytes; assay: Suppressive effect on IL-17 production by IL-23 stimulation in mouse splenocytes; type: cell-based; conditions: Splenocyte, 72 h, at 5 μmol/L of the test compound, 10 ng/mL human IL-23, 3 days, read-out: IL-17 production inhibition rate (%)
Procedure, shortened: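 Splenocytes from male C57BL/6J mice (3×10^5/well, with 100 U/mL human IL-2) stimulated with 10 ng/mL human IL-23 plus compound (0.1% DMSO) for 3 days at 37 °C. Supernatant IL-17 measured by ELISA; inhibition calculated against unstimulated and IL-23-only wells.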

Row | inhibition at 33 µM [1] [%] | SMILES | inhibition at 5 µM [2] [%]
1 | 103 | O=C(Nc1ccc(-c2ccccc2OC(F)(F)F)c(Cl)c1)[C@H]1CCCCN1C(=O)Cn1nccn1 [Example 66, (R)-1-(2-(2H-1,2,3-triazol-2-yl)acetyl)-N-(2-chloro-2′-(trifluoromethoxy)-[1,1′-biphenyl]-4-yl)piperidine-2-carboxamide] | 99.5
2 | 99.1 | Cc1nnc(CC(=O)N2CCCC[C@@H]2C(=O)Nc2ccc(-c3ccccc3OC(F)(F)F)c(Cl)c2)o1 [Example 67, (R)-N-(2-chloro-2′-(trifluoromethoxy)-[1,1′-biphenyl]-4-yl)-1-(2-(5-methyl-1,3,4-oxadiazol-2-yl)acetyl)piperidine-2-carboxamide] | 98.7
3 | 95.9 | COC(=O)CCCC(=O)N1CCCC[C@@H]1C(=O)Nc1ccc(-c2ccccc2OC(F)(F)F)c(Cl)c1 [Example 69, methyl (R)-5-(2-((2-chloro-2′-(trifluoromethoxy)-[1,1′-biphenyl]-4-yl)carbamoyl)piperidin-1-yl)-5-oxopentanoate] | 99.5
